Data on ten molecules can be found in patent US12390473B2, “Methods of treating tyrosine kinase inhibitor-induced diarrhea” (THE REGENTS OF THE UNIVERSITY OF CALIFORNIA, priority 2019, dated 2025).

Data set [1] deals with T84 human colonic epithelial cells. The data set is described as follows: Short-circuit current in T84 cell monolayers, identical apical and basolateral solutions. Particulars: for effect on residual afatinib-induced carbachol response in BAPTA-treated cells: 10 μM inhibitor; for effect on residual afatinib-induced carbachol response in BAPTA-treated cells / short-circuit current, TKI alone: 20 μM afatinib; for effect on carbachol and forskolin induced current responses, without and with afatinib pretreatment: 30 μM clotrimazole, 10 μM senicapoc, 30 min prior to 100 μM carbachol then 10 μM forskolin; for effect of higher concentrations on the small residual current: data not shown; for short-circuit current, TKI alone: 40 μM lapatinib, 20 μM gefitinib, before carbachol. The format is cell-based. On the procedure:
T84 cells (ATCC CCL-248) are cultured in a 1:1 mixture of DMEM/Ham's F-12 medium supplemented with 10% FBS, 100 U/mL penicillin and 100 μg/mL streptomycin. Cells are grown on Snapwell inserts (Costar Corning, Horseheads, NY) at 37° C. in 5% CO2/95% air and used 7-10 days after plating.
T84 cells are mounted in Ussing chambers and bathed in symmetrical HCO3-buffered solution containing (in mM): 120 NaCl, 5 KCl, 1 MgCl2, 1 CaCl2, 10 D-glucose, 5 HEPES and 25 NaHCO3 (pH 7.4). The solutions are aerated with 95% O2/5% CO2 and maintained at 37° C. For measurement of basolateral K^+ conductance, a mucosal-to-serosal K^+ gradient is established using solutions containing K^+ as the major charge-carrying ion. The apical solution contained (in mM): 142.5 K-gluconate, 1.25 CaCl2, 0.40 MgSO4, 0.43 KH2PO4, 0.35 Na2HPO4, 10 HEPES, 5.6 D-glucose, pH 7.4. […] For measurement of apical Cl^− conductance, a basolateral to apical Cl^− gradient is applied. The basolateral solution contained (in mM): 120 NaCl, 1 MgCl2, 1 CaCl2, 10 D-glucose, 5 HEPES and 25 NaHCO3 (pH 7.4). In the apical solution 120 mM NaCl is replaced by 5 mM NaCl and 115 mM Na-gluconate, and the basolateral membrane is permeabilized with 250 μg/ml amphotericin B (Pongkorpsakol P, Pathomthongtaweechai N, Srimanote P, Soodvilai S, Chatsudthipong V, and Muanprasat C. Inhibition of cAMP-activated intestinal chloride secretion by diclofenac: cellular mechanism and potential application in cholera. PLoS Negl Trop Dis. 2014; 8(9):e3119). Short-circuit current is measured using an EVC4000 multichannel voltage clamp (World Precision Instruments, Sarasota, FL). For intestinal short-circuit current measurement, CD1 mice are anesthetized with isoflurane. The ileum is removed, washed with ice-cold Krebs buffer, opened along the mesenteric border, and full-thickness layer is mounted in a micro-Ussing chamber (area 0.7 cm2, World Precision Instruments, Sarasota, FL). Hemichambers are filled with oxygenated Krebs-bicarbonate solution.
The effect of ErbB TKIs lapatinib, gefitinib, and afatinib on Cl^− secretory responses in T84 human colonic epithelial cells is tested. Short-circuit current is measured in T84 cell monolayers with identical solutions bathing the apical and basolateral surfaces.

The target in data set [2] is T1, apical membrane CFTR Cl- channels (Homo sapiens, UniProt P13569).
T1 construct: endogenous in cells; host or cells: T84 (ATCC CCL-248)
Nature of the data set: Apical Cl- conductance: short-circuit current in basolaterally permeabilized T84 cells with Cl- gradient. To be noted: basolateral membrane permeabilized, 10 μM BPO-27. The format is cell-based.

A further data set has as its system Sprague-Dawley rats. Nature of the data set: Rat model of afatinib diarrhea (stool water content, intestinal histology). It counts as in vivo. To be noted: for inhibition of the increase in stool water content: days 3 and 4; for reduction of the increased stool water content with afatinib: senicapoc 30 mg/kg oral twice daily. As for the experimental part:
Female Sprague-Dawley rats (age 8-10 weeks) received oral afatinib (60 mg/kg oral) daily for 6 days. […] Rats are placed individually in metabolic cages and given access to water and food. Stool samples are collected for 5 hours. To measure stool water content, the stool samples are dried at 70° C. for 24 hours and water content is calculated as (wet weight−dry weight)/wet weight. Following initial dose-finding studies in mice and rats with several TKIs, using stool water content (from wet and dry weight measurement) as endpoint, a robust, short-term experimental animal model of afatinib diarrhea is established involving daily oral administration of 60 mg/kg afatinib in rats.

Data set [3] has as its system basolateral membrane K+ channel(s). Nature of the data set: Basolateral K+ conductance: short-circuit current in apically permeabilized T84 cells with K+ gradient. The format is cell-based, human. To be noted: apical membrane permeabilized.
Method: (§1) T84 cells are mounted in Ussing chambers and bathed in symmetrical HCO3-buffered solution containing (in mM): 120 NaCl, 5 KCl, 1 MgCl2, 1 CaCl2, 10 D-glucose, 5 HEPES and 25 NaHCO3 (pH 7.4). The solutions are aerated with 95% O2/5% CO2 and maintained at 37° C. For measurement of basolateral K^+ conductance, a mucosal-to-serosal K^+ gradient is established using solutions containing K^+ as the major charge-carrying ion. The apical solution contained (in mM): 142.5 K-gluconate, 1.25 CaCl2, 0.40 MgSO4, 0.43 KH2PO4, 0.35 Na2HPO4, 10 HEPES, 5.6 D-glucose, pH 7.4. […] Short-circuit current is measured using an EVC4000 multichannel voltage clamp (World Precision Instruments, Sarasota, FL).
To measure basolateral membrane K^+ conductance directly, short-circuit current is measured in T84 cells following permeabilization of the apical membrane with amphotericin B in Cl^− and Na^+ free solutions and an apical-to-basolateral K^+ gradient (FIG. 7A).
For data set [4], the target named is epithelial Ca2+-activated K+ channels (Homo sapiens, UniProt O15554). Particulars: reported; cited from earlier work.
Data set [5] deals with cAMP-activated K+ channels. The data set is described as follows: Inhibition of forskolin-induced short-circuit current in T84 cells (FIG. 11B). The format is cell-based, human. To be noted: 10 μM forskolin.
Method: as §1
Where [6] appears, read: 30 μM BAPTA-AM, 100 μM carbachol.
Where [7] appears, read: afatinib-treated rats, BPO-27 10 mg/kg ip twice daily, clotrimazole 100 mg/kg oral in two divided doses.

Where only a bound is given, the exact number is not on record here.

As usually defined, the EC50 is the concentration at which the effect is half-maximal.

T1 sequence (P13569 whole entry): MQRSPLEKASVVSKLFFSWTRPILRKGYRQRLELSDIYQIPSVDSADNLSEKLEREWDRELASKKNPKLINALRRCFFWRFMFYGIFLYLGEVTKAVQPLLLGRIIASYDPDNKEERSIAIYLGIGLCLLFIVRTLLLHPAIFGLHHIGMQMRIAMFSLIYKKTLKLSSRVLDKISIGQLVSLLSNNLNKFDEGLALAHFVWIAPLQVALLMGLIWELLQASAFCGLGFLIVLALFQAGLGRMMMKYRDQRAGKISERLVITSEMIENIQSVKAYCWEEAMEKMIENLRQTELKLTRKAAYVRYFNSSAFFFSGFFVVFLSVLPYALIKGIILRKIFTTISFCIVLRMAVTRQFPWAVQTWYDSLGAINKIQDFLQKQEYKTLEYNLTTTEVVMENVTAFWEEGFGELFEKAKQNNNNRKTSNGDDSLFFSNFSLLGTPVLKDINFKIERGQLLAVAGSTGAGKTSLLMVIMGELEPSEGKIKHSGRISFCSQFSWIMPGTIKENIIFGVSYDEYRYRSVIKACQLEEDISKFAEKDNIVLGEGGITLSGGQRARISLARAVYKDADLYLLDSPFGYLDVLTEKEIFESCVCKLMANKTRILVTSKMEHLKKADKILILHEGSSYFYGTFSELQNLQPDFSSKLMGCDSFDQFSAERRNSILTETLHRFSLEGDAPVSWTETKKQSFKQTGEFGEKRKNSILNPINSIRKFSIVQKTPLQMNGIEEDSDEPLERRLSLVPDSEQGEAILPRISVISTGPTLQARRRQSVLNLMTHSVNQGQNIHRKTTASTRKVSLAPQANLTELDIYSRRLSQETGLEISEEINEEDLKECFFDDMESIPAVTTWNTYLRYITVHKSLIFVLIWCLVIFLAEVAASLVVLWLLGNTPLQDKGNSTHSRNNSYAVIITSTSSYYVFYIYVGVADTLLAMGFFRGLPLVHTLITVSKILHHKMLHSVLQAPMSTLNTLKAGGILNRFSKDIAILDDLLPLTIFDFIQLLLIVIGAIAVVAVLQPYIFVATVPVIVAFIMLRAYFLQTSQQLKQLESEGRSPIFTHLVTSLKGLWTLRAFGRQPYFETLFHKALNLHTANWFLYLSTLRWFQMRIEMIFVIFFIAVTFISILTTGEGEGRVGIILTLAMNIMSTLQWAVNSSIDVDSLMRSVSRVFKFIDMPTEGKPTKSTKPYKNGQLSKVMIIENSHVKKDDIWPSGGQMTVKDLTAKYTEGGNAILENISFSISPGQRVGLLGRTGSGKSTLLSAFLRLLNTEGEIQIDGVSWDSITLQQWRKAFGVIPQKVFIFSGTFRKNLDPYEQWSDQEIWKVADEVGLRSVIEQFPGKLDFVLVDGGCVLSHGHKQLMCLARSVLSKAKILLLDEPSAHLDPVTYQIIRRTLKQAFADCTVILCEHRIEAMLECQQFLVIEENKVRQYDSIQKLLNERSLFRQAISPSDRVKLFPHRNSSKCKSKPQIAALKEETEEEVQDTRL
epithelial Ca2+-activated K+ channels, sequence (O15554 whole entry): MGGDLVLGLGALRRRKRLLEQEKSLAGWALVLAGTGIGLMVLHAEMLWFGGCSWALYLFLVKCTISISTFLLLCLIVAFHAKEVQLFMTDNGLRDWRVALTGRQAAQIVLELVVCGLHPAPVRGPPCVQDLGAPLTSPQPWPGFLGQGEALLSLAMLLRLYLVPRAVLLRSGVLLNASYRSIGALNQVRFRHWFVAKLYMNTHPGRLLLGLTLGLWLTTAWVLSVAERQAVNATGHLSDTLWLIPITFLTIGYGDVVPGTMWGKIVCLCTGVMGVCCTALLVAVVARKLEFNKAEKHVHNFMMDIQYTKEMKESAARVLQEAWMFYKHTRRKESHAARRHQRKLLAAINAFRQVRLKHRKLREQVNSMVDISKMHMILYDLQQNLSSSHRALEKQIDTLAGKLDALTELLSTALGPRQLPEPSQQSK

Consider `CC(=O)OCOC(=O)CN(CC(=O)OCOC(C)=O)c1ccccc1OCCOc1ccccc1N(CC(=O)OCOC(C)=O)CC(=O)OCOC(C)=O` [BAPTA-AM], for which the “effect on carbachol response” value in data set [1] (setting [6]) is recorded as “largely prevents the carbachol response”.

Take `Cn1c(=O)c2c(-c3ccccc3)n3c(c2n(C)c1=O)[C@H](c1ccc(Br)o1)Oc1ccc(C(=O)O)cc1-3` [BPO-27]: the “effect on afatinib augmentation of carbachol-induced current” value in data set [1] (10 μM BPO-27, 20 μM afatinib, 100 μM carbachol) was “blocks the afatinib augmentation”. Also, the “effect on carbachol-induced current without afatinib” value in data set [1] (10 μM BPO-27, 100 μM carbachol) is given as “little effect”. Further, the “effect on residual afatinib-induced carbachol response in BAPTA-treated cells” value in data set [1] (setting [6]) is on record as “blocked”. Moreover, the “effect on afatinib-amplified carbachol response (apical Cl- conductance)” value in data set [2] was “blocked”. Further, in the data set on Sprague-Dawley rats (afatinib-treated rats, BPO-27 10 mg/kg ip twice daily from 1 day after first afatinib dose), the “inhibition of the increase in stool water content” value is listed as about 50%. Further, the “reduction of the increased stool water content with afatinib” value in the data set on Sprague-Dawley rats (setting [7]) is “significant reduction”. Moreover, the “inhibitor effect on stool water content by day 5” value in the data set on Sprague-Dawley rats (afatinib-treated rats, BPO-27 10 mg/kg ip twice daily, day 5) is given as “reduced inhibitor effect”.

Consider `O=C(O)c1ccc(/C=C2\SC(=S)N(c3cccc(C(F)(F)F)c3)C2=O)cc1` [CFTRinh-172], for which, in data set [1] (setting [6]), the “effect on residual afatinib-induced carbachol response in BAPTA-treated cells” value is on record as “blocked”.

Take `CCn1c(=O)[nH]c2ccccc21` [EBIO]: in data set [1] (EBIO 500 μM and/or afatinib 20 μM, 25 min prior to 100 μM carbachol then 10 μM forskolin), the “effect of pretreatment on carbachol and forskolin current responses” value is “amplifies the carbachol and forskolin current responses”.

With `CN(C)C/C=C/C(=O)Nc1cc2c(Nc3ccc(F)c(Cl)c3)ncnc2cc1O[C@H]1CCOC1` [afatinib], the EC50 in data set [1] (Homo sapiens, added 25 min prior to carbachol, read-out: EC50 of amplification of carbachol-induced short-circuit current) was about 5 µM. Besides, the “increase in carbachol response (basolateral K+ conductance) after pretreatment” value in data set [3] (20 μM afatinib, 100 μM carbachol) is about 2 fold. Besides, the intestinal histology entry in the data set with Sprague-Dawley rats (rats, 60 mg/kg afatinib oral daily) was “relatively minor pathology up to day 4, but greater epithelial disruption after that”. Moreover, in the data set on Sprague-Dawley rats (rats, 60 mg/kg afatinib oral daily, days 4-5, baseline ~60%), the stool water content is over 80%. Moreover, the “intestinal histology (H&E) by day 6” value in the data set with Sprague-Dawley rats (rats, 60 mg/kg afatinib oral, day 6) was “scattered epithelial disruption is seen in jejunum (black arrowheads) and villus atrophy in ileum”. In the data set with Sprague-Dawley rats (rats, 60 mg/kg afatinib oral, up to day 4), the “intestinal histology (H&E) up to day 4” value is recorded as “minor injury up to day 4 with villus blunting in ileum”.

As to `Clc1ccccc1C(c1ccccc1)(c1ccccc1)n1ccnc1` [clotrimazole], in data set [1], the “effect on carbachol and forskolin induced current responses, without and with afatinib pretreatment” value is on record as “largely prevents”; the “effect of higher concentrations on the small residual current” value was “does not inhibit the residual current”. In data set [3] (afatinib pretreatment, carbachol), the “effect on afatinib-amplified carbachol response (basolateral K+ conductance)” value is listed as “largely blocked”. In the data set on Sprague-Dawley rats (setting [7]), the “reduction of the increased stool water content with afatinib” value is reported as “significantly reduced”. The “inhibition of the increase in stool water content” value in the data set with Sprague-Dawley rats (afatinib-treated rats, clotrimazole 100 mg/kg oral in two divided doses) is given as about 75%. The “inhibition of epithelial Ca2+-activated K+ channels in patch-clamp studies” value in data set [4] was “fully inhibit”.

Take `COc1cc2ncnc(Nc3ccc(F)c(Cl)c3)c2cc1OCCCN1CCOCC1` [gefitinib]: in data set [1], the “short-circuit current, TKI alone” value was “do not increase short-circuit current”.

For `CS(=O)(=O)CCNCc1ccc(-c2ccc3ncnc(Nc4ccc(OCc5cccc(F)c5)c(Cl)c4)c3c2)o1` [lapatinib], the “short-circuit current, TKI alone” value in data set [1] is “do not increase short-circuit current”.

As to `NC(=O)C(c1ccccc1)(c1ccc(F)cc1)c1ccc(F)cc1` [senicapoc], in data set [1], the “effect on carbachol and forskolin induced current responses, without and with afatinib pretreatment” value is “largely prevents”; the “effect of higher concentrations on the small residual current” value is “does not inhibit the residual current”. For the same molecule, the “IC50 for inhibition of cAMP-dependent basolateral K+ conductance” value in data set [5] is given as “low micromolar”. In addition, the “reduction of the increased stool water content with afatinib” value with Sprague-Dawley rats (setting [7]) was “Significant, though lesser reduction”.

“EGF: Epidermal growth factor (NSDSECPLSHDGYCLHDGVCMYIEALDKYACNCVVGYIGERCQYRDLKWWELR; UniProt P01133 971-1023, looked up)”: the “effect on Cl- secretion in response to carbachol” value in data set [1] (100 ng/ml EGF 25 min prior to 100 μM carbachol) is reported as “greatly reduces”.
